Laboratory results taken from US9278925B2, “Substituted 3-(biphenyl-3-yl)-4-hydroxy-8-methoxy-1-azaspiro[4.5]dec-3-en-2-one” (BAYER INTELLECTUAL PROPERTY GMBH, priority 2011, dated 2016).

Legend:
[1] = tested on: H460; experiment: Tumour cell proliferation, CellTiter-Glo, 96 h; type: cell-based; conditions: 96-hour incubation
Experimental: (§1) In accordance with the invention, the substances were tested in cell-based assays for the ability of the substances of inhibiting tumour cell proliferation after a 96-hour incubation with the substance. Cell viability was tested using the CellTiter-Glo® luminescent cell viability assay (Promega). The cells were sown at a density of 2000-5000 cells/well (depending on the cell line) in 100 μl growth medium on 96-well microtitre plates. For each cell line examined, cells were sown on a separate plate to determine the luminescence at t=0 hours and t=96 hours. After overnight incubation at 37° C., the luminescence values for the t=0 samples were determined. The dose plates for the t=96 hours points in time were treated with substances diluted with growth medium. The cells were then incubated at 37° C. for 96 hours, and the luminescence values for the t=96 hours samples were then determined. For data analysis, the t=0 values were subtracted from the t=96 hours values for treated and untreated samples. The differences in luminescence in percent between substance-treated samples and control values were used to determine the growth inhibition in percent.
(§2) The substances were tested in the following cell lines which represent the stated indications in an exemplary manner: […]

[2] = tested on: KM12; experiment: Tumour cell proliferation, CellTiter-Glo, 96 h; type: cell-based; conditions: 96-hour incubation
Experimental: as §1, §2

[3] = tested on: MCF7; experiment: Tumour cell proliferation, CellTiter-Glo, 96 h; type: cell-based; conditions: 96-hour incubation
Experimental: as §1, §2

[4] = tested on: PC3; experiment: Tumour cell proliferation, CellTiter-Glo, 96 h; type: cell-based; conditions: 96-hour incubation
Experimental: as §1, §2

[5] = Octanol/water distribution coefficient (logP/D), isocratic HPLC method; type: physicochemical; conditions: for chromatographic logP: octanol/water, pH 7.4, pH7.4
Text: Assay for Determining the Octanol/Water Distribution Coefficient (logP/D): The distribution coefficient octanol/water P or D is a key parameter for estimating membrane penetration and permeability. It is defined as the ratio of the equilibrium concentrations of a substance in the two-phase system octanol/water. [formula] P=partition D=distribution c(octanol)=concentration of the substance in the octanol phase c(water)=concentration of the substance in the aqueous phase It is usually stated in form of the decadic logarithm (logP or logD). logP describes the distribution behaviour of a substance exclusively present in its neutral form. logD describes the distribution behaviour of a substance at a certain pH; depending on the ionisation constant pKa of the substance, some of the substance may be present in ionic form, and some in neutral form. The logP/D of the active compounds was determined using an isocratic HPLC method (HPLC=high performance liquid chromatography) (literature: OECD Guideline for Testing of Chemicals No. 117). The method is based on the correlation of the HPLC retention time of the test substance to that of reference substances with known distribution coefficients. […] The nine reference substances were dissolved individually in methanol. 100 μl each of the stock solutions were added to an HPLC vial and mixed with 300 μl of water. [table] A formamide solution was used to determine the hold-up time. To this end, 7 mg of formamide were dissolved in 10 ml of methanol. 100 μl of this stock solution were mixed with 500 μl of methanol and 200 μl of water. […] [table] [table] Injection Protocol: formamide, references, test substance 1, test substance 2, . . . , formamide, references. Evaluation of the retention times was carried out in a diode array detector (DAD) at 200-400 nm Via the molecular mass, the identity of the test substance was checked using the downstream mass spectrometer. The HPLC run was evaluated using the Waters software Masslynx 4.1. The logP/D values were calculated using the software “POW Determination” (proprietary development).

[6] = Membrane affinity logMA (MA-Transil); type: physicochemical; conditions: buffer pH 7.4
Experimental: Assays for Determining Membrane Affinity logMA and Protein Binding to Human Serum Albumin (HSA):
Determination of membrane affinity and protein binding to human serum albumin (HSA) was carried out via Transil technology (literature: A. Loidl-Stahlhofen, A. Eckert, T. Hartmann, M. Schöttner J Pharm Sci 90, 599-606 (2001)). Transil® (commercially available from Sovicell in Leipzig, Germany) are glass beads (diameter 10-12 μm) coated with a double-layer membrane of phosphatidylcholine (MA-Transil) or covalently attached human serum albumin (HSA-Transil).
To determine the logMA and the protein binding constant to HSA, the commercially available TRANSIL Intestinal Absorption & HSA Binding Combined Assay Kit was used. This is a 96-well microtitre plate (96 well-MTP) which is filled with Transil and can be used to determine MA-Transil and HSA-Transil binding of in each case eight active compounds. For each active compound, the Transil plate provides a row of 12 wells. Two wells serve as reference and are only filled with buffer pH 7.4. Five further wells contain MA-Transil in various increasing concentrations, the five remaining wells contain HSA-Transil in various increasing concentrations.
To determine binding of an active compound to Transil, the supernatant of the wells with Transil was quantified against the reference solution without Transil via HPLC-MS coupling (HPLC-MS=high performance liquid chromatography/mass spectrometry).
This is how the individual steps of the assay were carried out:
From the internal substance store, the active compounds were delivered in a 96-well MTP. This plate is referred to as mother plate. Each well contained 30 μl of a 10 mmol solution of active compound in DMSO (dimethyl sulphoxide). Two wells at the start (well A1) and at the end of the plate (well H12) were filled with 30 μl of a 10 mmol solution of warfarin in DMSO. Warfarin, whose membrane affinity and binding to HSA is known, serves to check whether the measurement is correct. The mother plate was used to prepare a daughter plate with a 1 to 4000 dilution with a mixture of buffer pH 7.4 and DMSO in a ratio of 1+1. The active compound concentration of each well was 2.5 μmol/liter, the volume of each well was 400 μl.
Using a Hamilton pipetting robot Microlab STAR, the 96 active compounds from the daughter plate were divided onto 12 Transil plates in total. From each well of the daughter plate, 12 times 20 μl were removed. The concentration of each well of the Transil plate was 0.25 μmol/liter, which corresponds to a dilution of 1 to 10. The DMSO content was 5%.
The filled Transil plates were each resuspended for two minutes, then allowed to stand at room temperature for at least two minutes and then centrifuged at 600 rotations per minute for five minutes. The pipetting robot was then used to remove 20 μl of supernatant from each well of the Transil plate and to transfer these to a separate microtitre plate. Here, the supernatants of in each case four Transil plates were pooled in a microtitre plate, so that at the end there were three pooled microtitre plates with in each case 80 μl of solution and an active compound concentration of 62.5 nM per well.
Prior to quantification of the active compounds by HPLC-MS, an optimization has to be carried out for each active compound where by way of a single injection daughter ion and optimum electrical voltages are determined. To this end, the pipetting robot prepared a dilution of the mother plate of 1 to 10 000 000 in an acetonitrile/water mixture in a ratio of 8+2 in a separate microtitre plate. This microtitre plate was measured by HPLC-MS using the software Discovery Quant Optimize from AB Sciex. The three pooled microtitre plates were measured by HPLC-MS using the software Discovery Quant Analyze from AB Sciex. […]

Compound | IC50 ([1]; Homo sapiens, NCI-H460) | IC50 ([2]; Homo sapiens, KM12) | IC50 ([3]; Homo sapiens, MCF7) | IC50 ([4]; Homo sapiens, PC-3) | chromatographic logP [5] | logMA [6] | IC50 [1] | IC50 [2] | IC50 [3] | IC50 [4] | logP/D pH7.4 [5]
COC[C@]1(OC)CC[C@@]2(CC1)NC(=O)C(c1cc(-c3ccc(Cl)c(F)c3)ccc1C)=C2O [Example 1-4, (5r,8r)-3-(4′-Chloro-3′-fluoro-4-methylbiphenyl-3-yl)-4-hydroxy-8-methoxy-8-(methoxymethyl)-1-azaspiro[4.5]dec-3-en-2-one] | 333 nM | 96 nM | 48 nM | 120 nM | 2.38 | – | – | – | – | – | –
CO[C@]1(C(F)(F)F)CC[C@]2(CC1)NC(=O)C(c1cc(-c3ccc(Cl)c(F)c3)ccc1C)=C2O [Example 1-2, (5r,8r)-3-(4′-Chloro-3′-fluoro-4-methylbiphenyl-3-yl)-4-hydroxy-8-methoxy-8-(trifluoromethyl)-1-azaspiro[4.5]dec-3-en-2-one] | 104 nM | 14 nM | < 14 nM | 22 nM | 2.45 | – | – | – | – | – | –
CO[C@]1(C(F)(F)F)CC[C@]2(CC1)NC(=O)C(c1cc(-c3ccc(Cl)cc3)ccc1C)=C2O [Example 1-1, (5r,8r)-3-(4′-Chloro-4-methylbiphenyl-3-yl)-4-hydroxy-8-methoxy-8-(trifluoromethyl)-1-azaspiro[4.5]dec-3-en-2-one] | 88 nM | 21 nM | 26 nM | 29 nM | 2.44 | – | – | – | – | – | –
COC[C@H]1CC[C@]2(CC1)NC(=O)C(c1cc(-c3ccc(Cl)cc3)ccc1C)=C2O [V.3-b, (5s,8s)-3-(4′-Chloro-4-methylbiphenyl-3-yl)-4-hydroxy-8-(methoxymethyl)-1-azaspiro[4.5]dec-3-en-2-one] | 67 nM | 31 nM | 23 nM | 36 nM | 2.5 | 2.08 | – | – | – | – | –
Cc1ccc(-c2ccc(Cl)c(F)c2)cc1C1=C(O)[C@]2(CC[C@](O)(C(F)(F)F)CC2)NC1=O [V.2-c, (5r,8r)-3-(4′-Chloro-3′-fluoro-4-methylbiphenyl-3-yl)-4,8-dihydroxy-8-(trifluoromethyl)-1-azaspiro[4.5]dec-3-en-2-one] | 2120 nM | 2370 nM | – | 767 nM | 1.3 | 2.3 | – | – | – | – | –
CO[C@]1(C)CC[C@]2(CC1)NC(=O)C(c1cc(-c3ccc(Cl)cc3)ccc1C)=C2O [Example V.1-a, (5r,8r)-3-(4′-Chloro-4-methylbiphenyl-3-yl)-4-hydroxy-8-methoxy-8-methyl-1-azaspiro[4.5]dec-3-en-2-one] | – | – | – | – | – | 1.4 | 79 nM | 38 nM | 23 nM | 35 nM | 2.51
COC[C@H]1CC[C@]2(CC1)NC(=O)C(c1cc(-c3ccc(Cl)c(F)c3)ccc1C)=C2O [V.4-b, (5s,8s)-3-(4′-Chloro-3′-fluoro-4-methylbiphenyl-3-yl)-4-hydroxy-8-(methoxymethyl)-1-azaspiro[4.5]dec-3-en-2-one] | 43 nM | 35 nM | 20 nM | 30 nM | 2.57 | 2.13 | – | – | – | – | –
COC[C@]1(OC)CC[C@@]2(CC1)NC(=O)C(c1cc(-c3ccc(Cl)cc3)ccc1C)=C2O [Example 1-3, (5r,8r)-3-(4′-Chloro-4-methylbiphenyl-3-yl)-4-hydroxy-8-methoxy-8-(methoxymethyl)-1-azaspiro[4.5]dec-3-en-2-one] | 365 nM | 222 nM | 45 nM | 194 nM | 2.3 | <1.0 | – | – | – | – | –
CO[C@]1(C)CC[C@]2(CC1)NC(=O)C(c1cc(-c3ccc(Cl)c(F)c3)ccc1C)=C2O [Example V.2-a, (5r,8r)-3-(4′-Chloro-3′-fluoro-4-methylbiphenyl-3-yl)-4-hydroxy-8-methoxy-8-methyl-1-azaspiro[4.5]dec-3-en-2-one] | – | – | – | – | – | 1.67 | 82 nM | 73 nM | 32 nM | 46 nM | 2.52
Cc1ccc(-c2ccc(Cl)cc2)cc1C1=C(O)[C@]2(CC[C@](O)(C(F)(F)F)CC2)NC1=O [V.1-c, (5r,8r)-3-(4′-Chloro-4-methylbiphenyl-3-yl)-4,8-dihydroxy-8-(trifluoromethyl)-1-azaspiro[4.5]dec-3-en-2-one] | 1870 nM | 827 nM | – | 275 nM | 1.6 | 2.1 | – | – | – | – | –
